Our source for the melting point values is patent US20050090506A1, “Insecticidal perfluoroalkylthiazole derivatives” (Nippon Soda Co., Ltd., priority 2003, published 2005).

The structures appear in SMILES notation.

Broadly, the melting point is the temperature of the solid-liquid transition.

With `CCOC(=O)c1sc(NC(=O)c2ccc(C)cc2)nc1C(F)(F)C(F)(F)F` [Compound 2, N-(5-Ethoxycarbonyl-4-pentafluoroethylthiazol-2-yl)-4-methylbenzamide], the melting point was 202 to 203 °C.
For `O=C(Nc1nc(C(F)(F)C(F)(F)F)c(CCl)s1)c1cc(C(F)(F)F)cc(C(F)(F)F)c1` [Compound 47, N-(5-chloromethyl-4-pentafluoroethylthiazol-2-yl)-3,5-bis-trifluoromethylbenzamide], the melting point lay in the range of 133 to 134 °C.
Molecule `CCOC(=O)c1sc(NC(=O)c2cc(C(F)(F)F)cc(C(F)(F)F)c2)nc1C(F)(F)C(F)(F)F` [Compound 68, N-(5-Ethoxycarbonyl-4-pentafluoroethylthiazol-2-yl)-3,5-bis-trifluoromethylbenzamide] returned a melting point of 154 to 155 °C.
